Data reported in US5298523A, “Method for treating transplant patients using mycalamide compounds” (priority 1992, dated 1994).
In brackets after ≈: the same amount, converted by molar mass. Where two headings read alike, the source gives them in different places.

What was measured:
[1] = test system: murine splenocytes; experiment: Mitogen-induced proliferation of murine splenocytes; assay type: cell-based; conditions: for activity at 0.5 µg/mL / activity at 0.05 µg/mL / activity at 0.005 µg/mL / activity at 0.0005 µg/mL / activity at 50 pg/mL: Mus musculus, Splenocyte; for activity at 0.5 µg/mL: 5.0 × 10^-1 μg/ml; for activity at 0.05 µg/mL: 5.0 × 10^-2 μg/ml; for activity at 0.005 µg/mL: 5.0 × 10^-3 μg/ml; for activity at 0.0005 µg/mL: 5.0 × 10^-4 μg/ml; for activity at 50 pg/mL: 5.0 × 10^-5 μg/ml
Method: Preparation of splenocyte cell suspensions. […] The resulting supernatant was then transferred to another sterile centrifuge tube, and the cell concentration adjusted to 2×10^6 cells/ml dilution with TCM.
Mitogen studies. The effects of mycalamide A on the mitogen-induced proliferation of murine splenocytes was investigated. Splenocytes (2×10^5 /well) from C57BL/6J or BALB/c mice were incubated with 1.0 μg/ml of Con A, 10 μg/ml of phytohemagglutinin (PHA), lipopolysaccharide (LPS) or pokeweed mitogen (PWM) and various concentrations of mycalamide A at 37° C. in a 5% CO2, humidified atmosphere for 90 hours. A volume of […] of a 20.0 μCi/ml of ^3 H-thymidine was added to each well, and the plates incubated for an additional 6 hours. Plates were harvested, and ^3 H-thymidine incorporation determined by counting samples in a liquid scintillation counter.

[2] = Lymphocyte viability assay (LCV, MTT) on human PBL; assay type: cell-based; conditions: for viability: human MLR, MTT
Method: Preparation of human peripheral blood leukocyte (PBL) suspensions. Human peripheral blood suspensions were prepared from Leukotrap blood filters as follows: Leukotrap filters containing processed leukocytes from random, unrelated blood donors were obtained from the Indian River Blood Bank (Vero Beach, Fla.). Buffy-coat blood cell suspensions were recovered by reverse-flow phosphate-buffered saline purging and centrifugation for 15 minutes at 475× g. Buffy coats were removed, and 5 ml of the suspension was layered onto 5 ml of Histopaque gradient material. The Histopaque gradients were centrifuged at 475× g for 30 minutes. Lymphocytes were removed from the Histopaque-medium interface, and washed twice with 10 ml of PBS (Dulbecco's phosphate-buffered saline without CaCl2 and MgCl2.6H2 O). The final cell pellet was resuspended in TCM, and the cell concentration adjusted to 2×10^6 cells/ml.
Determination of mycalamide A toxicity. The toxicity of mycalamide A on murine splenocytes and human PBL was determined using a colorimetric assay, based on the ability of viable cells to convert the colorless tetrazolium salt, 3-(4,5-dimethylthiazol-2yl)-2,5-diphenyl tetrazolium bromide (MTT) to a colored formazan product and trypan blue exclusion. For the colorimetric assay, a volume of 0.075 ml of an MTT solution (550 μg/ml of MTT in TCM) was added to test and control wells containing one of the populations of splenocytes or test wells and incubated for 5-6 hours following the initial incubation period. Microtiter plates were centrifuged at 100× g, supernatants carefully removed, and a volume of 0.20 ml of isopropyl alcohol was added to each well to dissolve the formazan crystals. The absorbance at 570 nm was determined for each well using an ELISA plate reader. […] As an additional parameter of toxicity, wells containing cultured lymphocytes with various dilutions of mycalamide A were examined with trypan blue, and the percentage of dye-excluding (viable) cells was determined.

[3] = test system: allogeneic skin graft rejection, CBA mice; experiment: Allogeneic skin graft rejection (BALB/c to CBA); assay type: in vivo, mouse; parameters: key to Graft Scores: 0: rejection; +: no rejection; conditions: 0.01 mg/kg
Method: Allogeneic skin grafting. The effects of mycalamide A on the rejection of allogeneic skin grafts were determined using the BALB/c→CBA skin graft model. Skin grafts were prepared from BALB/c donors as follows: donors were sacrificed by cervical dislocation and hair shaved from back, sides, and torso. A depilatory agent was used to remove any remaining hair. The prepared skin area was then swabbed with a Betadine and alcohol solution. The skin was removed by making an incision at the base of the tail, and the skin was lifted and separated from the underlying muscle in two sections. The skin was then placed in a sterile petri dish containing sterile, ice cold normal saline. A sterile, #7 cord borer was used to punch out approximately 16 graft discs from each animal skin preparation. Recipient CBA mice were anesthetized with 1.5 cc ketamine:xylamine. The back of each recipient animal was shaved and a depilatory agent used to remove excess hair. The prepared area was swabbed with Betadine:alcohol, and a small plug of skin, approximately the size of the prepared grafts, was removed by excision. The skin graft plug was then placed in the center of the excised region and the resulting transplanted area sprayed with a barrier film (liquid skin). Animals were placed one to a cage and supplied with sterile food and water, ad libitum. Mice were observed each day for signs of rejection of the graft (a shrinking and thickening of the graft with eventual sloughing).

[4] = Con A, read-out: Con A, % of control
[5] = LPS, read-out: LPS, % of control
[6] = PHA, read-out: PHA, % of control
[7] = PWM, read-out: PWM, % of control

C=C1CC(OC)(C(O)C(=O)NC2OCOC3C2OC(CC(O)CO)C(C)(C)C3OC)OC(C)C1C (stereo not drawn) [Mycalamide A, mycalamide A]
suppression of Con A, LPS, and PWM stimulation ([1]; 5×10^-5 μg/ml, Con A, LPS, PWM, in words): suppressed | activity at 0.5 µg/mL [1, 4]: 0% | activity at 0.05 µg/mL [1, 4]: 0% | activity at 0.005 µg/mL [1, 4]: 0% | activity at 0.0005 µg/mL [1, 4]: 0% | activity at 50 pg/mL [1, 4]: 0% | activity at 0.5 µg/mL [1, 5]: 0% | activity at 0.05 µg/mL [1, 5]: 0% | activity at 0.005 µg/mL [1, 5]: 0% | activity at 0.0005 µg/mL [1, 5]: 0% | activity at 50 pg/mL [1, 5]: 68% | activity at 0.5 µg/mL [1, 6]: 0% | activity at 0.05 µg/mL [1, 6]: 0% | activity at 0.005 µg/mL [1, 6]: 0% | activity at 0.0005 µg/mL [1, 6]: 38% | activity at 50 pg/mL [1, 6]: 139% | activity at 0.5 µg/mL [1, 7]: 0% | activity at 0.05 µg/mL [1, 7]: 0% | activity at 0.005 µg/mL [1, 7]: 0% | activity at 0.0005 µg/mL [1, 7]: 0% | activity at 50 pg/mL [1, 7]: 62% | viability ([2]; 5.0 × 10^-1 μg/ml): 42% | viability ([2]; 5.0 × 10^-2 μg/ml): 52% | viability ([2]; 5.0 × 10^-3 μg/ml): 46% | viability ([2]; 5.0 × 10^-4 μg/ml): 128% | viability ([2]; 5.0 × 10^-5 μg/ml): 111% | viability ([2]; 5.0 × 10^-6 μg/ml): 114% | viability ([2]; 5.0 × 10^-7 μg/ml): 116% | CC50 ([2]; read-out: TC50 (LCV)): 0.083 µg/mL (≈ 0.165 µM) | % Alive ([3]; Q2D × 7, 1-14 IP, D35): 0% | Graft Scores ([3]; Q2D × 7, 1-14 IP, D35): + | mean rejection time ([3]; twice daily, intraperitoneally for 14 days): 17.8 days | effect on rejection of allogeneic skin grafts ([3]; twice daily, intraperitoneally for 14 days, in words): suppressed the normal rejection of allogeneic skin grafts
